According to patent US20010011085A1, “4-SUBSTITUTED CEPHEM DERIVATIVES AS ELASTASE INHIBITORS” (priority 1995, published 2001):

Biological target: T1, human leukocyte elastase (HLE) (Homo sapiens, UniProt P08246)
T1 construct: purchased Elastin Product Company
T1 sequence (P08246 30-267): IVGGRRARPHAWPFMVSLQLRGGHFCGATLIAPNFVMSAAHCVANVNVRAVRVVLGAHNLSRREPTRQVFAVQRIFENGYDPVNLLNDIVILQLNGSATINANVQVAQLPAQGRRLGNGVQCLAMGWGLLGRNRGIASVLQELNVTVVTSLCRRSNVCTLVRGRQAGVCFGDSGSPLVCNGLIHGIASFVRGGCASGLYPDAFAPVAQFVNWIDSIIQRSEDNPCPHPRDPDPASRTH
Test: Kinetic parameters for HLE inhibition (fluorogenic substrate assay)
Type: biochemical
Conditions: 37° C., 0.027M pH 7.4 phosphate buffer, substrate N-methoxysuccinyl-alanyl-prolyl-valyl-7-amido-4-methylcoumarin; for Ki: read-out: "Potency" Ki^ss (apparent dissociation constant of the HLE-inhibitor complex at steady state)
Procedure: The compounds of the present invention are characterized by high inhibitory activity on elastases, especially human leukocyte elastase (HLE). […] These efficacy parameters for HLE inhibition, Ki^ss and k5/Ki, are defined in the equation below, representing the interaction of the enzyme (E) with the compounds (I), which is monitored (see Protocol) in the presence of a […] enzyme substrate (S): [formula]
Kinetic parameters of HLE (Elastin Product Company) were determined at 37° C., 0.027M pH 7.4 phosphate buffer, […], 1% MeCN, NaCl (I=0.15), by monitoring the release of 7-amino-4-methylcoumarin (fluorescence detection) from N-methoxysuccinyl-alanyl-prolyl-valyl-7-amido-4-methylcoumarin as the substrate, according to the equations: [formula]
Full details of the Experimental Protocol are reported in M. Alpegiani et al., Eur. J. Med. Chem. 1992, 27, 875-890.

`CO[C@H]1C(=O)N2C(C(=O)N3CCCC3)=C(C)C(OC(=O)c3c(C)cc(C)cc3C)S(=O)(=O)[C@H]12` (stereo partly drawn) [Compound No. 1, 2,4,6-Trimethylbenzoic Acid (6R,7S)-7-methoxy-3-methyl-5,5,8-trioxo-2-(pyrrolidine-1-carbonyl)-5-thia-1-aza-bicyclo[4.2.0] oct-2-en-4-yl Ester] was tested, and the “"Efficiency" k5/Ki (rate of formation of the HLE-inhibitor complex)” value was 800,000 M^−1s^−1 and the Ki was < 2 nM.
In the case of `CO[C@H]1C(=O)N2C(C(=O)N3CCCC3)=C(C)C(Sc3nc(=O)c(O)nn3C)S(=O)(=O)[C@H]12` (stereo partly drawn) [Compound No. 11, (6R,7S)-4-(6-Hydroxy-2-methyl-5-oxo-2,5-dihydro-[1,2,4]triazin-3-yl-sulfanyl)-7-methoxy-3-methyl-5,5-dioxo-2-(pyrrolidine-1-carbonyl)-5-thia-1-aza-bicyclo [4.2.0]oct-2-en-8-one], the “"Efficiency" k5/Ki (rate of formation of the HLE-inhibitor complex)” value is reported as 27,000 M^−1s^−1 and the Ki is reported as 20 nM.
For `CO[C@H]1C(=O)N2C(C(=O)N3CCCC3)=C(CSc3nc(=O)c(=O)[nH]n3C)CS(=O)(=O)[C@H]12` [Reference, reference compound], the “"Efficiency" k5/Ki (rate of formation of the HLE-inhibitor complex)” value was 9,200 M^−1s^−1 and the Ki was 100 nM.
